Assay [1] concerns the target T1, TYRO3 (Homo sapiens, UniProt Q06418).
T1 construct: purchased Life Technologies
T1 sequence (Q06418 41-890): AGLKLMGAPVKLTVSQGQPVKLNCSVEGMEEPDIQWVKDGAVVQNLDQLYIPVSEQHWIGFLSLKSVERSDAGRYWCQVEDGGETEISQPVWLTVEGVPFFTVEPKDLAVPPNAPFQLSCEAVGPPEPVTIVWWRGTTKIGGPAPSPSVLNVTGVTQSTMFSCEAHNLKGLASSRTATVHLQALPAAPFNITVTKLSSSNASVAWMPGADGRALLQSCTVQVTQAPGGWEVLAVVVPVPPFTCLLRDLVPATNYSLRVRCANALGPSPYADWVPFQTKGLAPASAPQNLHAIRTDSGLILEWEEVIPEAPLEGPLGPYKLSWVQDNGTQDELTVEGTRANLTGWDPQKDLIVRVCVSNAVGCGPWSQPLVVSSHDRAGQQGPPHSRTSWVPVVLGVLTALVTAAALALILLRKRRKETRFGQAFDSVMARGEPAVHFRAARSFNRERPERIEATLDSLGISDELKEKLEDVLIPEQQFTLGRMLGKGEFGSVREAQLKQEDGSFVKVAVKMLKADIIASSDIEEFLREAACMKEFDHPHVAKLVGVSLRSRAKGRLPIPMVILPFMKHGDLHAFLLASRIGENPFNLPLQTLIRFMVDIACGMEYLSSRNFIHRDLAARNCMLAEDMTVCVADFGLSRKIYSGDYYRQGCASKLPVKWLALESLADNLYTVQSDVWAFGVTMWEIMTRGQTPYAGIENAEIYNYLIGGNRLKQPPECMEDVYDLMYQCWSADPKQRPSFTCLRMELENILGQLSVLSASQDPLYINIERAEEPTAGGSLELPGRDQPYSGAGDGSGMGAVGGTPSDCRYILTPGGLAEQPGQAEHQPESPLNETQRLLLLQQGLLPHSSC
Briefly: LanthaScreen Eu kinase binding assay, TYRO3. Particulars: Tracer 236.

Assay [2] has as its system Axl phosphorylation in transiently transfected HEK293T cells. The experiment in a line: Cellular Axl phosphorylation assay. It counts as cell-based. Particulars: Homo sapiens, HEK-293T; HEK293T cells transfected with Axl, 1 hour compound treatment, Phospho-Axl vs Total-Axl. In a few lines: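 Axl-RTK was overexpressed by transfection in HEK293T cells to drive trans-autophosphorylation; cells were exposed to test compound for 1 hour. Phospho-Axl and total Axl were captured in lysates and detected by MSD electrochemiluminescence. IC50 was set between the DMSO group and the empty-vector-transfected minimum.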

Assay [3] concerns HCC827/ER cells. The experiment in a line: WST-1 cell viability assay in erlotinib-resistant cells. The conditions noted are these: compound combined with Erlotinib at constant 1:1 ratio, 3 days, FBS 1%. Background: Tetrazolium assays rely on reduction of a dye to a coloured formazan, in cell work by metabolically active cells.
Experimental: The killed cells were discarded and the remaining cells were cultured in a drug-free medium up to 80% confluence. Subsequently, cells were continuously exposed to increasing drug doses of up to 10 μM over a period of 8 months.
HCC827/ER cells were seeded in a 96-well plate with their respective media containing 10% FBS at 5000 cells/well. After seeding, the HCC827/ER cells were incubated for approximately 24 hours. […] The viability of the HCC827/ER cells was determined by adding WST-1 reagent according to Manufacturer's instructions (DoGenbio co., Ltd) and incubating for four hours. The plates were then read using an absorbance of 440 nm on Tecan Microplate reader (Infinite M200 pro, TECAN). The HCC827/ER cells' viability were calculated relative to vehicle (DMSO) control wells.

Usually Kd stands for the constant that tells how readily two partners part at equilibrium. Broadly, the IC50 is the midpoint of a concentration-inhibition curve. Lower therefore signals inhibition by little substance.

SMILES strings stand for the structures.

In assay [1], `CCOc1cn(-c2c(C)ccnc2C)nc1C(=O)Nc1ccc(Oc2ccnc3cc(OC)c(OC)cc23)cn1` [Compound 132] gave a Kd of less than 0.1 µM. The compound further registered an IC50 in assay [2] of less than 0.1 µM. For the same compound, in assay [3], the “Combination effect of compound and erlotinib on inhibition activity in Erlotinib-resistant cell-line” value is listed as “synergistic effect”.
Regarding `CCOc1cn(-c2ccc(OC(F)(F)F)cc2Cl)nc1C(=O)Nc1ccc(Oc2ccnc3cc(OC)c(OC)cc23)cc1F` [Compound 192], the Kd in assay [1] was 0.1 to 1 µM. For the same compound, in assay [2], the IC50 was less than 0.1 µM.
For `CCOc1cn(-c2c(C)cc(C)cc2C)nc1C(=O)Nc1ccc(Oc2ccnc3cc(OC)c(OC)cc23)cn1` [Compound 117] the same measures were 0.1 to 1 µM and less than 0.1 µM.
`CCOc1cn(-c2cncnc2C)nc1C(=O)Nc1ccc(Oc2ccnc3cc(OC)c(OC)cc23)cn1` [Compound 149]: the Kd in assay [1] was less than 0.1 µM. The IC50 in assay [2] is less than 0.1 µM. Also, the “Combination effect of compound and erlotinib on inhibition activity in Erlotinib-resistant cell-line” value in assay [3] was “synergistic effect”.
